Measured values reported in patent US9120749B2, “Quinoline derivatives and MELK inhibitors containing the same” (ONCOTHERAPY SCIENCE, INC., priority 2010, dated 2015).
Structures can show the parent of a compound that is named as a salt. Where two headings read alike, the source gives them in different places.

Columns and labels:
HT-1197 cells = test: Cell-based assay: anti-proliferative activity, Cell Counting Kit-8, 72 hours (HT-1197, negative control without MELK expression); details: Homo sapiens, HT1197, 72 h, HT1197 cells (negative control, no MELK expression), 72 hours
Procedure: (§1) To evaluate the expression status of MELK in several cell lines, western blot analysis was performed using crude cell lysate collected from those cells. Anti-MELK antibody (clone 31, BD Biosciences) was used to visualize the expression.
(§2) Active candidate inhibitors against MELK were evaluated for their target-specific cytotoxicity using T47D, A549, BT-549, and HT-1197 cells was used for negative control. 100 micro-L of cell suspension was seeded onto 96-well microtiter plate (ViewPlate-96FTC, PerkinElmer). The initial cell concentration of T47D, A549, BT-549, and HT-1197 were 3,000 cells/well, 2,000 cells/well and 2,500 cells/well, respectively. Cellular growth was determined using Cell Counting Kit-8 (DOJINDO) at 72 hours after the exposure of the candidate inhibitors. […] Accurate IC50 values were calculated as described previously.

A549 cells = test: Cell-based assay: anti-proliferative activity, Cell Counting Kit-8, 72 hours (A549); details: Homo sapiens, A549, 72 h, 72 hours
Procedure: as §2, with “100” for “Active candidate inhibitors against MELK were evaluated for their target-specific cytotoxicity using T47D, A549, BT-549, and HT-1197 cells was used for negative control. 100”

T47D cells = test: Cell-based assay: anti-proliferative activity, Cell Counting Kit-8, 72 hours (T47D); details: Homo sapiens, T47D, 72 h
Procedure: as §1, §2

MELK = MELK (Homo sapiens, UniProt Q14680); test: Kinase assay: MELK activity, phosphorylation of FITC-labeled histone H3 peptide measured by IMAP fluorescence polarization; format: biochemical; details: read-out: IC50 (μM) (kinase assay)
In short: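 Kinase reactions ran with or without test compound (final DMSO 1%) on a fluorescein-tagged H3 peptide. Progressive binding solution was added to terminate them. After a half-hour room-temperature incubation, polarization was measured.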

DU4475 cells = test: Cell-based assay: anti-proliferative activity, Cell Counting Kit-8, 72 hours (DU4475); details: Homo sapiens, DU-4475, 72 h
[1] = 50 micro-M ATP, FITC-labeled histone H3 peptide substrate, IMAP fluorescence polarization

MELK, sequence (Q14680 whole entry, looked up): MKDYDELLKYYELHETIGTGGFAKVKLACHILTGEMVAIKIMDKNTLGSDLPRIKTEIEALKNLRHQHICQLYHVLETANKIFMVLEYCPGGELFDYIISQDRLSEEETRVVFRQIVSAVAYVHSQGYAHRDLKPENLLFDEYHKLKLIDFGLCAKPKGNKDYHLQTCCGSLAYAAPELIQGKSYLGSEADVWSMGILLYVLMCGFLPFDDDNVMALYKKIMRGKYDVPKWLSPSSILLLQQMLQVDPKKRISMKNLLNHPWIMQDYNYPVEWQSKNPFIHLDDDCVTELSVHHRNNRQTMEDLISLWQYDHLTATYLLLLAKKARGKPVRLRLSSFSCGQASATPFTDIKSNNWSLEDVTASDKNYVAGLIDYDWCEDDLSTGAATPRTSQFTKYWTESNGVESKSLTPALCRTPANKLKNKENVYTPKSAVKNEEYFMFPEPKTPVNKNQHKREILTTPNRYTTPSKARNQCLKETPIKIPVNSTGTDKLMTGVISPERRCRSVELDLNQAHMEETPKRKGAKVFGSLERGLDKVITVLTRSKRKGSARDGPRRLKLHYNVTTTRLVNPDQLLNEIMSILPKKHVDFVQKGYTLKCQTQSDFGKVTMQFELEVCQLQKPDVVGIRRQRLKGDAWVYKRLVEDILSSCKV

| Structure (SMILES) | IC50 (HT-1197 cells) | IC50 (A549 cells) | IC50 (T47D cells) | IC50 (MELK) | IC50 (DU4475 cells) | IC50 (MELK; [1]) |
| --- | --- | --- | --- | --- | --- | --- |
| COc1cc(-c2ccc3ncc(C(=O)C4CC4)c(Nc4ccc(C(O)CN(C)C)cc4)c3c2)cc(Cl)c1O (stereo not drawn) [Example 708, (6-(3-chloro-4-hydroxy-5-methoxyphenyl)-4-(4-(2-(dimethylamino)-1-hydroxyethyl)phenylamino)quinolin-3-yl)(cyclopropyl)methanone] | 4.6 µM | 0.3 µM | 0.41 µM | 0.0065 µM | 0.25 µM | – |
| NC1CCCN(c2ccc(Nc3c(C(=O)C4CC4)cnc4ccc(-c5cc(F)c(O)c(F)c5)cc34)cn2)C1 (stereo not drawn) [Example 725, (4-(6-(3-Aminopiperidin-1-yl)pyridin-3-ylamino)-6-(3,5-difluoro-4-hydroxyphenyl)quinolin-3-yl)(cyclopropyl)methanone] | 0.11 µM | 0.012 µM | 0.0078 µM | 0.003 µM | 0.01 µM | – |
| CN(C)CC(O)c1ccc(Nc2c(C(=O)C3CC3)cnc3ccc(-c4cc(F)c(O)c(Cl)c4)cc23)cc1 (stereo not drawn) [Example 707, {6-(3-Chloro-5-fluoro-4-hydroxyphenyl)-4-[4-(2-(dimethylamino)-1-hydroxyethyl)phenylamino]quinolin-3-yl}(cyclopropyl)methanone] | 3.4 µM | 0.13 µM | 0.21 µM | 0.0059 µM | 0.081 µM | – |
| O=C(c1cnc2ccc(-c3cc(Cl)c(O)c(Cl)c3)cc2c1Nc1ccc(N2CCC(O)C2)nc1)C1CC1 (stereo not drawn) [Example 670, cyclopropyl(6-(3,5-dichloro-4-hydroxyphenyl)-4-(6-(3-hydroxypyrrolidin-1-yl)pyridin-3-ylamino)quinolin-3-yl)methanone] | 5.3 µM | 0.72 µM | 0.43 µM | 0.0069 µM | 0.59 µM | – |
| COc1cc(-c2ccc3ncc(C(=O)C4CC4)c(Nc4cnc(N5CCCC(N)C5)nc4)c3c2)cc(Cl)c1O (stereo not drawn) [Example 644, (4-(2-(3-aminopiperidin-1-yl)pyrimidin-5-ylamino)-6-(3-chloro-4-hydroxy-5-methoxyphenyl)quinolin-3-yl)(cyclopropyl)methanone] | 2.4 µM | 0.23 µM | 0.047 µM | 0.0028 µM | 0.068 µM | – |
| COc1cc(-c2ccc3ncc(C(C)=O)c(Nc4ccc(N5CCNCC5)nc4)c3c2)cc(Cl)c1O [Example 704, 1-(6-(3-chloro-4-hydroxy-5-methoxyphenyl)-4-(6-(piperazin-1-yl)pyridin-3-ylamino)quinolin-3-yl)ethanone hydrochloride] | 2.1 µM | 0.2 µM | 0.17 µM | 0.0023 µM | 0.12 µM | – |
| CN(C)C1CCN(Cc2ccc(Nc3c(C(=O)C4CC4)cnc4ccc(-c5cc(Cl)c(O)c(Cl)c5)cc34)cc2)C1 (stereo not drawn) [Example 694, cyclopropyl(6-(3,5-dichloro-4-hydroxyphenyl)-4-(4-((3-(dimethylamino)pyrrolidin-1-yl)methyl)phenylamino)quinolin-3-yl)methanone] | 7.5 µM | 0.15 µM | 0.41 µM | – | 0.12 µM | – |
| CN1CCN(C[C@H]2CC[C@H](Nc3c(C(=O)C4CC4)cnc4ccc(-c5cc(F)c(O)c(Cl)c5)cc34)CC2)CC1 [Example 636] | 0.94 µM | 0.2 µM | 0.16 µM | – | 0.18 µM | – |
| COc1cc(-c2ccc3ncc(C(C)=O)c(Nc4ccc(CN5CCN(C)CC5)cc4)c3c2)cc(Cl)c1O [Example 653, 1-(6-(3-chloro-4-hydroxy-5-methoxyphenyl)-4-(4-((4-methylpiperazin-1-yl)methyl)phenylamino)quinolin-3-yl)ethanone] | 1.9 µM | 0.5 µM | 1.3 µM | – | 0.32 µM | – |
| CN(C)C1CCN(C[C@H]2CC[C@H](Nc3c(C(=O)C4CC4)cnc4ccc(-c5cc(Cl)c(O)c(Cl)c5)cc34)CC2)C1 (stereo partly drawn) [Example 663] | 4.6 µM | 0.22 µM | 0.32 µM | – | 0.17 µM | – |
| CC(=O)c1cnc2ccc(-c3cc(Cl)c(O)c(Cl)c3)cc2c1N[C@H]1CC[C@H](CCN(C)C)CC1 [Example 739, 1-(6-(3,5-dichloro-4-hydroxyphenyl)-4-((trans-4-(2-(dimethylamino)ethyl)cyclohexyl)amino)quinolin-3-yl)ethanone] | 4 µM | – | 0.14 µM | – | 0.099 µM | – |
| CCN(CC)C1CCC(Nc2c(C(=O)C3CCCC3)cnc3ccc(-c4ccc(O)c(Cl)c4)cc23)CC1 (stereo not drawn) [Example 385, (6-(3-chloro-4-hydroxyphenyl)-4-(4-(diethylamino)cyclohexylamino)quinolin-3-yl)(cyclopentyl)methanone] | 1.9 µM | 0.94 µM | 1.7 µM | – | – | 0.019 µM |
| O=C(c1cnc2ccc(-c3cc(Cl)c(O)c(Cl)c3)cc2c1-c1ccc(NCCN2CCOCC2)nc1)C1CC1 [Example 450] | 12 µM | 4.6 µM | 1.8 µM | – | – | 0.018 µM |
| CN1CCN(Cc2ccc(Nc3c(C(=O)C4CC4)cnc4ccc(-c5ccc(O)c(Cl)c5)cc34)cc2)CC1 [Example 406, (6-(3-chloro-4-hydroxyphenyl)-4-(4-((4-methylpiperazin-1-yl)methyl)phenylamino)quinolin-3-yl)(cyclopropyl)methanone] | 3.4 µM | 0.49 µM | 1.3 µM | – | – | 0.019 µM |
| COc1cc(-c2ccc3ncc(C(=O)C4CC4)c(Nc4ccc(CN(C)C)cn4)c3c2)cc(Cl)c1O [Example 429, (6-(3-chloro-4-hydroxy-5-methoxyphenyl)-4-(5-((dimethylamino)methyl)pyridin-2-ylamino)quinolin-3-yl)(cyclopropyl)methanone] | 19 µM | 5.1 µM | 3.8 µM | – | – | 0.019 µM |
| COc1cc(-c2ccc3ncc(S(C)(=O)=O)c(Nc4ccc(CN(C)C)cc4)c3c2)cc(Cl)c1O [Example 410, 2-chloro-4-(4-(4-((dimethylamino)methyl)phenylamino)-3-(methylsulfonyl)quinolin-6-yl)-6-methoxyphenol] | 6.2 µM | 1.2 µM | 0.58 µM | – | – | 0.0068 µM |
| CN(C)Cc1ccc(Nc2c(C(=O)C3CC3)cnc3ccc(-c4cc(F)c(O)c(Cl)c4)cc23)nc1 [Example 435, (6-(3-chloro-5-fluoro-4-hydroxyphenyl)-4-(5-((dimethylamino)methyl)pyridin-2-ylamino)quinolin-3-yl)(cyclopropyl)methanone] | 12 µM | 2.8 µM | 2.7 µM | – | – | 0.049 µM |
| CN(C)CC(=O)N1CC2CC1CN2c1c(C(=O)C2CC2)cnc2ccc(-c3cc(F)c(O)c(Cl)c3)cc12 (stereo not drawn) [Example 455] | 60 µM | 37 µM | 12 µM | – | – | 0.069 µM |
| CN(C)Cc1ccc(-c2c(C(=O)C3CC3)cnc3ccc(-c4cc(Cl)c(O)c(Cl)c4)cc23)cc1 [Example 431, cyclopropyl(6-(3,5-dichloro-4-hydroxyphenyl)-4-(4-((dimethylamino)methyl)phenyl)quinolin-3-yl)methanone] | 7.5 µM | 0.59 µM | 0.97 µM | – | – | 0.0039 µM |
| COc1cc(-c2ccc3ncc(S(C)(=O)=O)c(N[C@H]4CC[C@H](CN(C)C)CC4)c3c2)cc(Cl)c1O [Example 422] | 4.4 µM | 0.65 µM | 0.7 µM | – | – | 0.0041 µM |
| CN(C)CC(=O)N1CCN(c2c(C(=O)C3CC3)cnc3ccc(-c4cc(F)c(O)c(Cl)c4)cc23)CC1 [Example 442, 1-(4-(6-(3-chloro-5-fluoro-4-hydroxyphenyl)-3-(cyclopropanecarbonyl)quinolin-4-yl)piperazin-1-yl)-2-(dimethylamino)ethanone] | 5.5 µM | 1.5 µM | 0.74 µM | – | – | 0.0035 µM |
| CS(=O)(=O)c1cnc2ccc(-c3ccc(O)c(Cl)c3)cc2c1N1CCC(CN2CCCC2)CC1 [Example 408, 2-chloro-4-(3-(methylsulfonyl)-4-(4-(pyrrolidin-1-ylmethyl)piperidin-1-yl)quinolin-6-yl)phenol] | 9.5 µM | 3.2 µM | 8.2 µM | – | – | 0.009 µM |
| CN(C)CC1CCN(c2c(C(=O)C3CC3)cnc3ccc(-c4ccc(O)c(C(F)(F)F)c4)cc23)CC1 [Example 454] | 5.3 µM | 1.3 µM | 4 µM | – | – | 0.014 µM |
| CN(C)CC1CCN(c2c(C(=O)C3CC3)cnc3ccc(-c4ccc5cc(O)ccc5c4)cc23)CC1 [Example 449] | 3.3 µM | 0.64 µM | 1.8 µM | – | – | 0.014 µM |
| N#Cc1cnc2ccc(-c3ccc(O)c(Cl)c3)cc2c1N1CCC(CN2CCCC2)CC1 [Example 433, 6-(3-chloro-4-hydroxyphenyl)-4-(4-(pyrrolidin-1-ylmethyl)piperidin-1-yl)quinoline-3-carbonitrile] | 3.7 µM | 0.7 µM | 0.54 µM | – | – | 0.043 µM |
